Reference: ChEMBL document CHEMBL4837196, “Cytotoxic and Antiangiogenetic Xanthones Inhibiting Tumor Proliferation and Metastasis from Garcinia xipshuanbannaensis” (J Nat Prod, 2021)
Activity calls are given as the source filed them. The calls are words filed in the database; no cut-off is given here.

Assays:
[1] = tested on: HeLa; assay: Cytotoxicity against human HeLa cells assessed as inhibition of cell proliferation incubated for 48 hrs by MTT assay; type: functional, cell-based
[2] = tested on: HepG2; assay: Antitumour activity against CM-Dil labeled human HepG2 cells xenografted in AB zebrafish embryo assessed as retarded tumor growth measured after 48 hrs by confocal microscopy analysis; type: functional, cell-based; settings: dose 12-48 µM
[3] = tested on: HeLa; assay: Cell cycle arrest in human HeLa cells assessed as accumulation at S phase at 6 uM measured after 48 hrs by PI-staining based flow cytometric analysis (reference value: 51.39%); type: functional
[4] = tested on: HeLa; assay: Induction of apoptosis in human HeLa cells assessed as late apoptotic cells at 6 uM measured after 48 hrs by Annexin V-FITC/propidium iodide staining based flow cytometric analysis (reference value: 12.2 %); type: functional
[5] = tested on: HeLa; assay: Induction of reactive oxygen species generation in human HeLa cells assessed as increase in ROS level at 2.5 to 30 uM measured after 48 hrs by DCFH-DA staining based flow cytometric analysis; type: functional, cell-based; settings: dose 2.5-30 µM
[6] = tested on: HeLa; assay: Cell cycle arrest in human HeLa cells assessed as accumulation at G0/G1 phase at 12 uM measured after 48 hrs by PI-staining based flow cytometric analysis (reference value: 40.03%); type: functional
[7] = tested on: HeLa; assay: Cell cycle arrest in human HeLa cells assessed as accumulation at G2 phase at 6 uM measured after 48 hrs by PI-staining based flow cytometric analysis (reference value: 8.58%); type: functional
[8] = tested on: HeLa; assay: Cell cycle arrest in human HeLa cells assessed as accumulation at S phase at 12 uM measured after 48 hrs by PI-staining based flow cytometric analysis (reference value: 51.39%); type: functional
[9] = tested on: K562; assay: Cytotoxicity against human K562 cells assessed as inhibition of cell proliferation incubated for 48 hrs by MTT assay; type: functional, cell-based; settings: K562, 48 h
[10] = tested on: HeLa; assay: Induction of apoptosis in human HeLa cells assessed as early apoptotic cells at 6 uM measured after 48 hrs by Annexin V-FITC/propidium iodide staining based flow cytometric analysis (reference value: 3.34 %); type: functional
[11] = tested on: HeLa; assay: Induction of apoptosis in human HeLa cells assessed as necrotic cells at 12 uM measured after 48 hrs by Annexin V-FITC/propidium iodide staining based flow cytometric analysis (reference value: 1.32 %); type: functional
[12] = molecular target: Signal transducer and activator of transcription 3 (Homo sapiens) (UniProt P40763); assay: Inhibition of STAT3 phosphorylation in human HeLa cells measured after 12 hrs by western blot analysis; type: cell-based
Signal transducer and activator of transcription 3 (Homo sapiens), sequence (P40763 whole entry): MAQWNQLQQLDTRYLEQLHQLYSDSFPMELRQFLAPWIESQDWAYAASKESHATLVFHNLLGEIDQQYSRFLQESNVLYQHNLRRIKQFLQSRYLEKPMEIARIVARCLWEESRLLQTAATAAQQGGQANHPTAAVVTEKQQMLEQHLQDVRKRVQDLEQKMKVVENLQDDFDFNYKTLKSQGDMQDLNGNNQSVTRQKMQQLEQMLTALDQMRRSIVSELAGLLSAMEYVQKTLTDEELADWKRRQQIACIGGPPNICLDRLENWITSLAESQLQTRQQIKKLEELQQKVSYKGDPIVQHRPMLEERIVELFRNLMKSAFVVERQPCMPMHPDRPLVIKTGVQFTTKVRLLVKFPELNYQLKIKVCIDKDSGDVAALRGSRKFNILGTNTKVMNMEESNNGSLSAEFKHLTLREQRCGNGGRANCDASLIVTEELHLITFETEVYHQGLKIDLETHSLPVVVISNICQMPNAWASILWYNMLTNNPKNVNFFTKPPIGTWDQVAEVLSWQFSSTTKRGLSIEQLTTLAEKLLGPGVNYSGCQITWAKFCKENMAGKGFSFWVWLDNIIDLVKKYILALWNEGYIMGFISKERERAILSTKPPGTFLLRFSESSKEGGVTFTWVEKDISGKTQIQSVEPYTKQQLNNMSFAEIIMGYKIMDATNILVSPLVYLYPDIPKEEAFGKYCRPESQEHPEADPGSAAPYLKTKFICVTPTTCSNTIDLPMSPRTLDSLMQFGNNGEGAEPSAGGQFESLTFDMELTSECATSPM

[13] = tested on: HeLa; assay: Induction of apoptosis in human HeLa cells assessed as viable cells at 6 uM measured after 48 hrs by Annexin V-FITC/propidium iodide staining based flow cytometric analysis (reference value: 83.1 %); type: functional; settings: read-out: Activity
[14] = tested on: HeLa; assay: Induction of apoptosis in human HeLa cells assessed as viable cells at 12 uM measured after 48 hrs by Annexin V-FITC/propidium iodide staining based flow cytometric analysis (reference value: 83.1 %); type: functional; settings: read-out: Activity
[15] = tested on: HepG2; assay: Cytotoxicity against human HepG2 cells assessed as inhibition of cell proliferation incubated for 48 hrs by MTT assay; type: functional, cell-based; settings: HepG2, 48 h
[16] = species on record: Danio rerio; assay: Antiangiogenesis activity in Tg(fli1:EGFP) transgenic zebrafish embryo assessed as change in intersegmental vessels length at 48 uM measured after 48 hrs by confocal microscopy analysis (reference value: 3233.3 micrometer); type: functional
[17] = tested on: HeLa; assay: Induction of apoptosis in human HeLa cells assessed as early apoptotic cells at 12 uM measured after 48 hrs by Annexin V-FITC/propidium iodide staining based flow cytometric analysis (reference value: 3.34 %); type: functional
[18] = molecular target: Signal transducer and activator of transcription 3 (Homo sapiens) (UniProt P40763); assay: Inhibition of STAT3 activation in human HeLa cells measured after 12 hrs by western blot analysis; type: cell-based
[19] = tested on: HeLa; assay: Induction of apoptosis in human HeLa cells assessed as necrotic cells at 6 uM measured after 48 hrs by Annexin V-FITC/propidium iodide staining based flow cytometric analysis (reference value: 1.32 %); type: functional
[20] = tested on: HeLa; assay: Induction of apoptosis in human HeLa cells assessed as necrotic cells at 24 uM measured after 48 hrs by Annexin V-FITC/propidium iodide staining based flow cytometric analysis (reference value: 1.32 %); type: functional
[21] = tested on: HeLa; assay: Induction of apoptosis in human HeLa cells assessed as late apoptotic cells at 12 uM measured after 48 hrs by Annexin V-FITC/propidium iodide staining based flow cytometric analysis (reference value: 12.2 %); type: functional
[22] = tested on: HeLa; assay: Cell cycle arrest in human HeLa cells assessed as accumulation at S phase at 24 uM measured after 48 hrs by PI-staining based flow cytometric analysis (reference value: 51.39%); type: functional
[23] = tested on: HeLa; assay: Induction of apoptosis in human HeLa cells assessed as viable cells at 24 uM measured after 48 hrs by Annexin V-FITC/propidium iodide staining based flow cytometric analysis (reference value: 83.1 %); type: functional; settings: read-out: Activity
[24] = tested on: HeLa; assay: Cell cycle arrest in human HeLa cells assessed as accumulation at G0/G1 phase at 24 uM measured after 48 hrs by PI-staining based flow cytometric analysis (reference value: 40.03%); type: functional
[25] = tested on: HeLa; assay: Cell cycle arrest in human HeLa cells assessed as accumulation at G2 phase at 24 uM measured after 48 hrs by PI-staining based flow cytometric analysis (reference value: 8.58%); type: functional
[26] = tested on: HeLa; assay: Cell cycle arrest in human HeLa cells assessed as accumulation at G2 phase at 12 uM measured after 48 hrs by PI-staining based flow cytometric analysis (reference value: 8.58%); type: functional
[27] = species on record: Danio rerio; assay: Antiangiogenesis activity in Tg(fli1:EGFP) transgenic zebrafish embryo assessed as change in intersegmental vessels length at 12 uM measured after 48 hrs by confocal microscopy analysis (reference value: 3233.3 micrometer); type: functional
[28] = tested on: HeLa; assay: Induction of apoptosis in human HeLa cells assessed as early apoptotic cells at 24 uM measured after 48 hrs by Annexin V-FITC/propidium iodide staining based flow cytometric analysis (reference value: 3.34 %); type: functional
[29] = tested on: HeLa; assay: Induction of apoptosis in human HeLa cells assessed as late apoptotic cells at 24 uM measured after 48 hrs by Annexin V-FITC/propidium iodide staining based flow cytometric analysis (reference value: 12.2 %); type: functional
[30] = Effect on STAT3 protein level in human HeLa cells at 6 to 24 uM by Western blotting; type: ADME, cell-based; settings: dose 6-24 µM
[31] = tested on: HeLa; assay: Cell cycle arrest in human HeLa cells assessed as accumulation at G0/G1 phase at 6 uM measured after 48 hrs by PI-staining based flow cytometric analysis (reference value: 40.03%); type: functional
[32] = species on record: Danio rerio; assay: Antiangiogenesis activity in Tg(fli1:EGFP) transgenic zebrafish embryo assessed as change in intersegmental vessels length at 24 uM measured after 48 hrs by confocal microscopy analysis (reference value: 3233.3 micrometer); type: functional

Question: For `COC(=O)C[C@](O)(CCCC(C)(C)O)C(=O)O[C@@H]1C(OC)=C[C@]23CCCN2CCc2cc4c(cc2[C@H]13)OCO4` [OMACETAXINE MEPESUCCINATE], which IC50 [1] is on record?
Answer: Its IC50 is 0.4 µM.

Question: With `COc1cc([C@@H]2c3cc4c(cc3[C@@H](O[C@@H]3O[C@@H]5CO[C@@H](C)O[C@H]5[C@H](O)[C@H]3O)[C@H]3COC(=O)[C@H]23)OCO4)cc(OC)c1O` as the compound, how does the Activity [2] read?
Answer: The Activity was “Dose-Dependent Effect”.

Question: Which results are given for `COC(C)(C)CCc1c(O)c(O)cc2oc3c4c(c(CC=C(C)C)c(O)c3c(=O)c12)OC(C)(C)C=C4`?
Answer: Activity [3]: 38.09%; Activity [4]: 16.1%; Activity [5]: Active; Activity [6]: 65.78%; Activity [7]: 6.58%; Activity [8]: 29.59%; IC50 [9]: > 10 µM; Activity [10]: 6.92%; Activity [11]: 2.63%; IC50 [1]: 9.6 µM; inhibition [12]: Active; viability at 6 µM [13]: 75.2%; viability at 12 µM [14]: 71.2%; IC50 [15]: > 10 µM; Activity [16]: 1881.6 um; Activity [17]: 8.23%; inhibition [18]: Dose-Dependent Effect; Activity [19]: 1.72%; Activity [20]: 3.76%; Activity [21]: 18%; Activity [22]: 31.09%; viability at 24 µM [23]: 58.1%; Activity [24]: 67.2%; Activity [25]: 1.71%; Activity [26]: 4.63%; Activity [2]: Dose-Dependent Effect; Activity [27]: 2476.5 um; Activity [28]: 13.6%; Activity [29]: 24%; Activity [30]: Non-Toxic; Activity [31]: 55.33%; Activity [32]: 2263.2 um
